Biological target: T1, HA-F684A CaSR mutant (Rattus norvegicus, UniProt P48442, F684A)
T1 construct: mGluR5 signal peptide (N); expressed in transfected cells; host or cells: HEK293T
T1 sequence (P48442 20-1079 F684A): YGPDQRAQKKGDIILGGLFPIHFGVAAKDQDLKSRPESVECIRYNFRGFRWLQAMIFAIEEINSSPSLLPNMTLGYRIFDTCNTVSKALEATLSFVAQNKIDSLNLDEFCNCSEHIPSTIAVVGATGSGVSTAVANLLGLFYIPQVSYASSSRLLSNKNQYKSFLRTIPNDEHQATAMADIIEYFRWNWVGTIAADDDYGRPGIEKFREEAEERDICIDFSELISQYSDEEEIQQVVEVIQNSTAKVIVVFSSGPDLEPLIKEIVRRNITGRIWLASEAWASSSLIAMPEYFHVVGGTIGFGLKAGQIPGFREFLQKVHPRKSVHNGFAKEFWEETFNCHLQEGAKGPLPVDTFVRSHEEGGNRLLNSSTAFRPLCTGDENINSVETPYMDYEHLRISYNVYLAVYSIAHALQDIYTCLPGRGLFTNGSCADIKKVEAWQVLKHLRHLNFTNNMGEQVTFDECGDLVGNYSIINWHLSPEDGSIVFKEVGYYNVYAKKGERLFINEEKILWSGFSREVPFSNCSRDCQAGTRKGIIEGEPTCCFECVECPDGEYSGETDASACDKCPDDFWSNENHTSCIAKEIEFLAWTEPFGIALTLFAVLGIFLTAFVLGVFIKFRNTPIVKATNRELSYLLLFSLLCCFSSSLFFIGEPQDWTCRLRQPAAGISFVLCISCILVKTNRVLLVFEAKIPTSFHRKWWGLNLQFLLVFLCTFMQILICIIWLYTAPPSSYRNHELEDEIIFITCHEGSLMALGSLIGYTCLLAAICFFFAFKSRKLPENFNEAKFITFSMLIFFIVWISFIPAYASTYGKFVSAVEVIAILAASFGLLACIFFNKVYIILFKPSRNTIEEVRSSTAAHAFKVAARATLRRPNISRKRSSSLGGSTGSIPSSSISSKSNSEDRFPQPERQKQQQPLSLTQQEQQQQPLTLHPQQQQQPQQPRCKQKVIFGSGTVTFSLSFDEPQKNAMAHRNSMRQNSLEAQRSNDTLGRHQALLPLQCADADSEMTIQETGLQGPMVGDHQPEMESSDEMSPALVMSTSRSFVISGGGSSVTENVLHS
Assay: IP-One assay, HEK293T transiently transfected
Format: cell-based

EC50 (Ca^2+ alone): 6.6 mM
pEC50 ± S.E.M. (Ca^2+ alone): 2.18 ± 0.01
Max ± S.E.M. (Ca^2+ alone, normalized to maximum response of WT CaSR): 97 ± 3.4%
EC50 (Ca^2+ with 1 μM NPS R-568): 2.89 mM
pEC50 ± S.E.M. (Ca^2+ with 1 μM NPS R-568): 2.54 ± 0.02
Max ± S.E.M. (Ca^2+ with 1 μM NPS R-568, normalized to maximum response with Ca^2+ alone for the construct): 99 ± 11%
EC50 (Ca^2+ with 5 μM NPS 2143): 8.17 mM
pEC50 ± S.E.M. (Ca^2+ with 5 μM NPS 2143): 2.09 ± 0.004
Max ± S.E.M. (Ca^2+ with 5 μM NPS 2143, normalized to maximum response with Ca^2+ alone for the construct): 70 ± 8.1%
Compound: [Ca+2] [Ca^2+]

Source: PMC5394417, “Investigating the molecular mechanism of positive and negative allosteric modulators in the calcium-sensing receptor dimer” (Scientific Reports, 2017)
